Reference: patent publication US20240158446A1, “CYCLIC COMPOUND HAVING SELECTIVE INHIBITORY ACTION ON KRAS OVER HRAS AND NRAS” (CHUGAI SEIYAKU KABUSHIKI KAISHA, priority 2021, published 2024)
pKd: −log10 of the molar value. Where a SMILES comes first, the peptide text is derived from it. Bridges are numbered along the chain shown (N, C = ends). [ ]: non-standard residue; d: D form. The star is where a group is joined. hPhe(3-Cl-4-CF3) = N[C@@H](CCc1ccc(C(F)(F)F)c(Cl)c1)C(=O)O; NPrPhe(4-CF3) = CCCN[C@@H](Cc1ccc(C(F)(F)F)cc1)C(=O)O; Pro(4-spirocPr) = O=C(O)[C@@H]1CC2(CC2)CN1; Abu(4,4,4-F3) = N[C@@H](CC(F)(F)F)C(=O)O; Morpholine(3S-CO) = O=C(O)[C@@H]1COCCN1; Pip(4,4-F2) = O=C(O)[C@@H]1CC(F)(F)CCN1; NMeGly(cPent) = CN[C@H](C(=O)O)C1CCCC1; Hyp = O=C(O)[C@@H]1C[C@@H](O)CN1; NMeD = CN[C@@H](CC(=O)O)C(=O)O; NMeL = CN[C@@H](CC(C)C)C(=O)O; Pip = O=C(O)[C@@H]1CCCCN1; Morpholide = C1CN(*)CCO1; NMeA = CN[C@@H](C)C(=O)O; Ac5c = NC1(C(=O)O)CCCC1; Aze = O=C(O)[C@@H]1CCN1; Abu = CC[C@H](N)C(=O)O; NPrGly = CCCNCC(=O)O; Sar = CNCC(=O)O

Columns and labels:
[1] = target: GDP-bound NRAS wild-type protein (Homo sapiens, UniProt P01111); experiment: Binding to NRAS by surface plasmon resonance (SPR), Single Cycle Kinetics; settings: SPR, GDP-bound NRAS wild-type protein vs GDP-bound KRAS wild-type protein
GDP-bound NRAS wild-type protein, sequence (P01111 whole entry): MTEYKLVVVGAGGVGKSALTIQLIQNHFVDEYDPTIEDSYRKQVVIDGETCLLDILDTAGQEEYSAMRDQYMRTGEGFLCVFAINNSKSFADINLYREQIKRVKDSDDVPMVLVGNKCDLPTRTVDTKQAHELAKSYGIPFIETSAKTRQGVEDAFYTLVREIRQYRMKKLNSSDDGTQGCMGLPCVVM

[2] = target: GDP-bound KRAS wild-type protein (Homo sapiens, UniProt P01116); experiment: Binding to KRAS by surface plasmon resonance (SPR), Single Cycle Kinetics; settings: SPR Single Cycle Kinetics, GDP-bound KRAS wild-type protein, 1:1 binding model; read-out: KRAS KD
GDP-bound KRAS wild-type protein, sequence (P01116 whole entry): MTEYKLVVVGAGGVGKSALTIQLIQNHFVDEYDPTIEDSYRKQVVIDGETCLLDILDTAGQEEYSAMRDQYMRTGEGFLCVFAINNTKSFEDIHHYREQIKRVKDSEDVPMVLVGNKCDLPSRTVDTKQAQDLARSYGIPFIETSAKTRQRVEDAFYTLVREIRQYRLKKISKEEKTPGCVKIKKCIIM

[3] = target: GDP-bound HRAS wild-type protein (Homo sapiens, UniProt P01112); experiment: Binding to HRAS by surface plasmon resonance (SPR), Single Cycle Kinetics; settings: SPR, GDP-bound HRAS wild-type protein vs GDP-bound KRAS wild-type protein
GDP-bound HRAS wild-type protein, sequence (P01112 whole entry): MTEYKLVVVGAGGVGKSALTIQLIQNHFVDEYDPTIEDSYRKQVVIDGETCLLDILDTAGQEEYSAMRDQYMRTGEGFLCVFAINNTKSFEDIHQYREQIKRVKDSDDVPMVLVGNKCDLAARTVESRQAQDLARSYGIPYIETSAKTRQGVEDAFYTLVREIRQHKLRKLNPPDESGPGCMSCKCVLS

SMILES	pKd [2]	NRAS/KRAS (ratio of KD value for NRAS to KD value for KRAS) [1]	HRAS/KRAS (ratio of KD value for HRAS to KD value for KRAS) [3]
CCCN1C(=O)CN(C)C(=O)CN(C)C(=O)[C@H]([C@@H](C)CC)NC(=O)[C@H](CC(C)C)N(C)C(=O)C[C@@H](C(=O)N2CCOCC2)N(C)C(=O)[C@H](C2CCCC2)N(C)C(=O)C2(CCCC2)NC(=O)[C@@H]2CC3(CC3)CN2C(=O)[C@H](CCc2ccc(C(F)(F)F)c(Cl)c2)NC(=O)CN(C)C(=O)[C@@H]1Cc1ccc(C(F)(F)F)cc1 [PP0261] ([NMeL]I[Sar][Sar][NPrPhe(4-CF3)][Sar][hPhe(3-Cl-4-CF3)][Pro(4-spirocPr)][Ac5c][NMeGly(cPent)][NMeD]-Morpholide; lactam N-11)	9.85	B (a compound having 3 or more and less than 10 is denoted as B)	C (A compound having a KD ratio of 0.1 or more and less than 3 is denoted as C)
CCCN1C(=O)CN(C)C(=O)CN(C)C(=O)[C@H]([C@@H](C)CC)NC(=O)[C@H](CC(C)C)N(C)C(=O)C[C@@H](C(=O)N2CCOCC2)N(C)C(=O)[C@H](C2CCCC2)N(C)C(=O)C2(CCCC2)NC(=O)[C@@H]2C[C@@H](OC)CN2C(=O)[C@H](CCc2ccc(C(F)(F)F)c(Cl)c2)NC(=O)CN(C)C(=O)[C@@H]1Cc1ccc(C(F)(F)F)cc1 [PP0262] ([NMeL]I[Sar][Sar][NPrPhe(4-CF3)][Sar][hPhe(3-Cl-4-CF3)][Hyp](Me)[Ac5c][NMeGly(cPent)][NMeD]-Morpholide; lactam N-11)	10.36	B (a compound having 3 or more and less than 10 is denoted as B)	B (a compound having 3 or more and less than 10 is denoted as B)
CCCN1C(=O)CN(C)C(=O)CN(C)C(=O)[C@H]([C@@H](C)CC)NC(=O)[C@H](CC(C)C)N(C)C(=O)C[C@@H](C(=O)N2CCOCC2)N(C)C(=O)[C@H](C2CCCC2)N(C)C(=O)C2(CCCC2)NC(=O)[C@@H]2COCCN2C(=O)[C@H](CCc2ccc(C(F)(F)F)c(Cl)c2)NC(=O)CN(C)C(=O)[C@@H]1Cc1ccc(C(F)(F)F)cc1 [PP0265] ([NMeL]I[Sar][Sar][NPrPhe(4-CF3)][Sar][hPhe(3-Cl-4-CF3)][Morpholine(3S-CO)][Ac5c][NMeGly(cPent)][NMeD]-Morpholide; lactam N-11)	9.55	B (a compound having 3 or more and less than 10 is denoted as B)	C (A compound having a KD ratio of 0.1 or more and less than 3 is denoted as C)
CCCN1CC(=O)NC2(CCCC2)C(=O)N(C)[C@@H](C2CCCC2)C(=O)N(C)[C@H](C(=O)N2CCOCC2)CC(=O)N(C)[C@@H](CC(C)C)C(=O)N[C@@H]([C@@H](C)CC)C(=O)N(C)CC(=O)N(C)CC(=O)N(CCC)[C@@H](Cc2ccc(C(F)(F)F)cc2)C(=O)N(C)CC(=O)N[C@@H](CCc2ccc(C(F)(F)F)c(Cl)c2)C1=O [PP0267] ([NMeL]I[Sar][Sar][NPrPhe(4-CF3)][Sar][hPhe(3-Cl-4-CF3)][NPrGly][Ac5c][NMeGly(cPent)][NMeD]-Morpholide; lactam N-11)	9.06	B (a compound having 3 or more and less than 10 is denoted as B)	B (a compound having 3 or more and less than 10 is denoted as B)

Further lines, with some results ahead:

pKd [2]	SMILES	NRAS/KRAS (ratio of KD value for NRAS to KD value for KRAS) [1]	HRAS/KRAS (ratio of KD value for HRAS to KD value for KRAS) [3]
9.41	CCCN1C(=O)CN(C)C(=O)CN(C)C(=O)[C@H]([C@@H](C)CC)NC(=O)[C@H](CC(C)C)N(C)C(=O)C[C@@H](C(=O)N2CCOCC2)N(C)C(=O)[C@H](C2CCCC2)N(C)C(=O)C2(CCCC2)NC(=O)[C@@H]2CCN2C(=O)[C@H](CCc2ccc(C(F)(F)F)c(Cl)c2)NC(=O)CN(C)C(=O)[C@@H]1Cc1ccc(C(F)(F)F)cc1 [PP0260] ([NMeL]I[Sar][Sar][NPrPhe(4-CF3)][Sar][hPhe(3-Cl-4-CF3)][Aze][Ac5c][NMeGly(cPent)][NMeD]-Morpholide; lactam N-11)	B (a compound having 3 or more and less than 10 is denoted as B)	C (A compound having a KD ratio of 0.1 or more and less than 3 is denoted as C)
9.33	CCCN1C(=O)CN(C)C(=O)CN(C)C(=O)[C@H]([C@@H](C)CC)NC(=O)[C@H](CC(C)C)N(C)C(=O)C[C@@H](C(=O)N2CCOCC2)N(C)C(=O)[C@H](C2CCCC2)N(C)C(=O)C2(CCCC2)NC(=O)[C@@H]2CCCCN2C(=O)[C@H](CCc2ccc(C(F)(F)F)c(Cl)c2)NC(=O)CN(C)C(=O)[C@@H]1Cc1ccc(C(F)(F)F)cc1 [PP0263] ([NMeL]I[Sar][Sar][NPrPhe(4-CF3)][Sar][hPhe(3-Cl-4-CF3)][Pip][Ac5c][NMeGly(cPent)][NMeD]-Morpholide; lactam N-11)	B (a compound having 3 or more and less than 10 is denoted as B)	C (A compound having a KD ratio of 0.1 or more and less than 3 is denoted as C)
9.38	CCCN1C(=O)CN(C)C(=O)CN(C)C(=O)[C@H]([C@@H](C)CC)NC(=O)[C@H](CC(C)C)N(C)C(=O)C[C@@H](C(=O)N2CCOCC2)N(C)C(=O)[C@H](C2CCCC2)N(C)C(=O)C2(CCCC2)NC(=O)[C@@H]2CC(F)(F)CCN2C(=O)[C@H](CCc2ccc(C(F)(F)F)c(Cl)c2)NC(=O)CN(C)C(=O)[C@@H]1Cc1ccc(C(F)(F)F)cc1 [PP0264] ([NMeL]I[Sar][Sar][NPrPhe(4-CF3)][Sar][hPhe(3-Cl-4-CF3)][Pip(4,4-F2)][Ac5c][NMeGly(cPent)][NMeD]-Morpholide; lactam N-11)	B (a compound having 3 or more and less than 10 is denoted as B)	C (A compound having a KD ratio of 0.1 or more and less than 3 is denoted as C)
8.85	CCCN1C(=O)[C@@H]2CCN2C(=O)[C@H](C)N(C)C(=O)[C@H](CC)NC(=O)[C@H](CC(C)C)N(C)C(=O)C[C@@H](C(=O)N2CCOCC2)N(C)C(=O)[C@H](C2CCCC2)N(C)C(=O)C2(CCCC2)NC(=O)[C@@H]2CCCN2C(=O)[C@H](CCc2ccc(C(F)(F)F)c(Cl)c2)NC(=O)CN(C)C(=O)[C@@H]1Cc1ccc(C(F)(F)F)cc1 [PP0269] ([NMeL][Abu][NMeA][Aze][NPrPhe(4-CF3)][Sar][hPhe(3-Cl-4-CF3)]P[Ac5c][NMeGly(cPent)][NMeD]-Morpholide; lactam N-11)	C (A compound having a KD ratio of 0.1 or more and less than 3 is denoted as C)	B (a compound having 3 or more and less than 10 is denoted as B)
9.12	CCCN1C(=O)[C@@H]2CCN2C(=O)[C@H](C)N(C)C(=O)[C@H](CC(F)(F)F)NC(=O)[C@H](CC(C)C)N(C)C(=O)C[C@@H](C(=O)N2CCOCC2)N(C)C(=O)[C@H](C2CCCC2)N(C)C(=O)C2(CCCC2)NC(=O)[C@@H]2CCCN2C(=O)[C@H](CCc2ccc(C(F)(F)F)c(Cl)c2)NC(=O)CN(C)C(=O)[C@@H]1Cc1ccc(C(F)(F)F)cc1 [PP0270] ([NMeL][Abu(4,4,4-F3)][NMeA][Aze][NPrPhe(4-CF3)][Sar][hPhe(3-Cl-4-CF3)]P[Ac5c][NMeGly(cPent)][NMeD]-Morpholide; lactam N-11)	C (A compound having a KD ratio of 0.1 or more and less than 3 is denoted as C)	B (a compound having 3 or more and less than 10 is denoted as B)
